Data on two molecules can be found in publication PMC8213057, “Targeting ALK2: An Open Science Approach to Developing Therapeutics for the Treatment of Diffuse Intrinsic Pontine Glioma” (Journal of Medicinal Chemistry, 2020).

The target in one assay is CDK6/cyclin D1 (Homo sapiens, UniProt Q00534). The conditions noted are these: 1 μM; Run 1, Run 2.
A further assay concerns the target T1, TAK1 (Homo sapiens, UniProt O43318).
T1 sequence (O43318 1-303 limits assumed): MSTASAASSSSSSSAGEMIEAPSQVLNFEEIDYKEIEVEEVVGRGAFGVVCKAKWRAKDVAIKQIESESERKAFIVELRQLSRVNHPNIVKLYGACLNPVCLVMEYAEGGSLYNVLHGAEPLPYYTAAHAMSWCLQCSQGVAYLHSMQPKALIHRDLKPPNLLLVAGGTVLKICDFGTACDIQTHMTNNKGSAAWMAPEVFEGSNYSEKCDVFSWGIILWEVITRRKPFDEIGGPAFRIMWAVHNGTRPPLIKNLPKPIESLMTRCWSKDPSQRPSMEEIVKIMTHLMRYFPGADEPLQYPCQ
The conditions noted are these: 1 μM; Run 1, Run 2.

The target in the next assay is CAMK1b (Homo sapiens, UniProt Q6P2M8). Briefly: biochemical. The conditions noted are these: read-out: % enzyme activity, 1 μM; Run 1, Run 2.
Chain of CAMK1b (Q6P2M8 whole entry): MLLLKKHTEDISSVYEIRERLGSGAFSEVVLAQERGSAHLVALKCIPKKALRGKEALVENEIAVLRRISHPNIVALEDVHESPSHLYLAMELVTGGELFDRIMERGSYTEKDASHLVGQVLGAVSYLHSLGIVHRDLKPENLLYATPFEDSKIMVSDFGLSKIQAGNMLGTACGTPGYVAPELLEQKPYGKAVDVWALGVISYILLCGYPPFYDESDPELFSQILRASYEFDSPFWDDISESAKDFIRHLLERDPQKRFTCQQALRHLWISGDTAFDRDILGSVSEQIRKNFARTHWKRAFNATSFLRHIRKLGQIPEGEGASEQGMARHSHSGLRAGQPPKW
The target of a further assay is DYRK1/DYRK1A (Homo sapiens, UniProt Q13627). As to the kind of experiment: biochemical. The conditions noted are these: read-out: % enzyme activity, 1 μM; Run 1, Run 2.
A further assay addresses GSK3b (Homo sapiens, UniProt P49841). Briefly: biochemical. The conditions noted are these: read-out: % enzyme activity, 1 μM; Run 1, Run 2.
In the next assay the target is HCK (Homo sapiens, UniProt P08631). As to the kind of experiment: biochemical. The conditions noted are these: read-out: % enzyme activity, 1 μM; Run 1, Run 2.
Chain of HCK (P08631 whole entry): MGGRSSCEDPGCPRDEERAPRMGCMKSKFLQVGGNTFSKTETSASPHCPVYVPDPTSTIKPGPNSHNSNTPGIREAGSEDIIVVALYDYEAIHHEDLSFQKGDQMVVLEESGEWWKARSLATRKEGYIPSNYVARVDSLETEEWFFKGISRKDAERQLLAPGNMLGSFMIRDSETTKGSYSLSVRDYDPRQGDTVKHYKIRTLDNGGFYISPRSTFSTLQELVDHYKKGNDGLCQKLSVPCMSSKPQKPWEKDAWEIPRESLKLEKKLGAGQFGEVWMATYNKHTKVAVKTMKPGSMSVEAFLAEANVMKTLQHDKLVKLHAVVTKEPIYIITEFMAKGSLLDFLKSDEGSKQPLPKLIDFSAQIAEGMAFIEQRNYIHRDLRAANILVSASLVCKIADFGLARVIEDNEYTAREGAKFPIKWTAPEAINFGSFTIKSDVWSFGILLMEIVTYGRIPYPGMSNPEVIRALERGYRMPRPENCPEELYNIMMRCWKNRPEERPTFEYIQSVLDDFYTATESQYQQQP
Another assay has as its target MEK1 (Homo sapiens, UniProt Q02750). Briefly: biochemical. The conditions noted are these: read-out: % enzyme activity, 1 μM; Run 1, Run 2.
A further assay deals with MST3/STK24 (Homo sapiens, UniProt Q9Y6E0). As to the kind of experiment: biochemical. The conditions noted are these: read-out: % enzyme activity, 1 μM; Run 1, Run 2.
Chain of MST3/STK24 (Q9Y6E0 whole entry): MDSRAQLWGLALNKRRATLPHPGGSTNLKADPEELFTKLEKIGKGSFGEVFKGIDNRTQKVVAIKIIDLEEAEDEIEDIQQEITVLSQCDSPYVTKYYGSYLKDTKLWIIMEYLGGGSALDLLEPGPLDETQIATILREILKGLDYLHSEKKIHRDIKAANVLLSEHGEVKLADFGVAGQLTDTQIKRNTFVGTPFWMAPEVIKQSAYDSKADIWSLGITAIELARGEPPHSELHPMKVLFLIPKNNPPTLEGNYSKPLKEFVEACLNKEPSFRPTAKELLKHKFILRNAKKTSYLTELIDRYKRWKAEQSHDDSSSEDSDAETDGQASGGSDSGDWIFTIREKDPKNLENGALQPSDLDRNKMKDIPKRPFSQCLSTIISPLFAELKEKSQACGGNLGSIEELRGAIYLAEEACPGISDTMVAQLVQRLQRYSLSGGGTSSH
A further assay concerns the target T2, MYLK4 (Homo sapiens, UniProt Q86YV6).
T2 sequence (Q86YV6 1-388): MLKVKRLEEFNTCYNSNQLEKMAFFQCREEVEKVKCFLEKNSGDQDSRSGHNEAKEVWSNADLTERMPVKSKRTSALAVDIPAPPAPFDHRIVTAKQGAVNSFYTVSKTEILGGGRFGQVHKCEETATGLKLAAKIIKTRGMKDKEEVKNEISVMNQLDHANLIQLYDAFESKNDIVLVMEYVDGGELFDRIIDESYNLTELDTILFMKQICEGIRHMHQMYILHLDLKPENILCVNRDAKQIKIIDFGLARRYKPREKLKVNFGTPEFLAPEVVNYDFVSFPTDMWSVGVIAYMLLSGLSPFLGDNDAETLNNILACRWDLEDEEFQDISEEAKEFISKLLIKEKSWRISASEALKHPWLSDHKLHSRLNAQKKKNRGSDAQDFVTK
As to the kind of experiment: biochemical. The conditions noted are these: read-out: % enzyme activity, 1 μM; Run 1, Run 2.

The target of a further assay is T3, NEK2 (Homo sapiens, UniProt P51955).
T3 sequence (P51955 1-445): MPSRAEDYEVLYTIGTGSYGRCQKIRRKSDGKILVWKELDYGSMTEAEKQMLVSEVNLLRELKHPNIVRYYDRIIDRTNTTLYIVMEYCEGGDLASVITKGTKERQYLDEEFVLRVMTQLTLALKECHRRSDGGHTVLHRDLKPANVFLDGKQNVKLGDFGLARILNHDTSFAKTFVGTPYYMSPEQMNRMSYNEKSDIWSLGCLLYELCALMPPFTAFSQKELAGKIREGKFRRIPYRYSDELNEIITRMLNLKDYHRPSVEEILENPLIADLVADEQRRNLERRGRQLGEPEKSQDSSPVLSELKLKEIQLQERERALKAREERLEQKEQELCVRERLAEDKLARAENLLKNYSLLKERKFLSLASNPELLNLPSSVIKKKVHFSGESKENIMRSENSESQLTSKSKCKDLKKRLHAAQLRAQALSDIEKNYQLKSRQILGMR
As to the kind of experiment: biochemical. The conditions noted are these: read-out: % enzyme activity, 1 μM; Run 1, Run 2.

The next assay deals with NEK6 (Homo sapiens, UniProt Q9HC98). As to the kind of experiment: biochemical. The conditions noted are these: read-out: % enzyme activity, 1 μM; Run 1, Run 2.
The target in a further assay is T4, P38d/MAPK13 (Homo sapiens, UniProt O15264).
T4 sequence (O15264 1-365): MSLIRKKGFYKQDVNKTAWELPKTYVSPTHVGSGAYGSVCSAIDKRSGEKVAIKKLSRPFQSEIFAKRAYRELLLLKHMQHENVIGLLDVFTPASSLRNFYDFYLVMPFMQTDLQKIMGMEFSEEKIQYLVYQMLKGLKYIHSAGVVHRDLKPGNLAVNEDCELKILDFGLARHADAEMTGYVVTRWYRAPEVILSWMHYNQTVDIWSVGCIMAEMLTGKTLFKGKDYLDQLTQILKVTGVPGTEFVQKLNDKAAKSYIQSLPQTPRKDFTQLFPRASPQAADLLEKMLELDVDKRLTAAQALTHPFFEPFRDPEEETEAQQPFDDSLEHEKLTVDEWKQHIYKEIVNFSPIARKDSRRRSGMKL
Briefly: biochemical. The conditions noted are these: read-out: % enzyme activity, 1 μM; Run 1, Run 2.

In a further assay the target is p70S6K/RPS6KB1 (Homo sapiens, UniProt P23443). As to the kind of experiment: biochemical. The conditions noted are these: read-out: % enzyme activity, 1 μM; Run 1, Run 2.
Chain of p70S6K/RPS6KB1 (P23443 whole entry): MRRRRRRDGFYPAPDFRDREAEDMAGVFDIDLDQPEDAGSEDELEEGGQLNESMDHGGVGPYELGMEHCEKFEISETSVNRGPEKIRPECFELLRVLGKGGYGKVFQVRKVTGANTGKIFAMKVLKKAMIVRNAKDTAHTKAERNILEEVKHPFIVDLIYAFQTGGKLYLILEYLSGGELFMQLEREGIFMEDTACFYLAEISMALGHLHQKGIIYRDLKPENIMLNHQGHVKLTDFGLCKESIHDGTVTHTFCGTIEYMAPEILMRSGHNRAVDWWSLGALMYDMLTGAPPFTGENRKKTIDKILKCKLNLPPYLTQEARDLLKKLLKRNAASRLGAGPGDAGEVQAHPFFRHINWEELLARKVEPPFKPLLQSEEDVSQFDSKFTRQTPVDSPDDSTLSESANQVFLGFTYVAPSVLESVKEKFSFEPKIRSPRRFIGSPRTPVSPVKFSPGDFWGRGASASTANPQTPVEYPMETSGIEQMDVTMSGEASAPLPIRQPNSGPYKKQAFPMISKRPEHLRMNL
The target in the next assay is T5, PKCiota (Homo sapiens, UniProt P41743).
T5 sequence (P41743 1-596): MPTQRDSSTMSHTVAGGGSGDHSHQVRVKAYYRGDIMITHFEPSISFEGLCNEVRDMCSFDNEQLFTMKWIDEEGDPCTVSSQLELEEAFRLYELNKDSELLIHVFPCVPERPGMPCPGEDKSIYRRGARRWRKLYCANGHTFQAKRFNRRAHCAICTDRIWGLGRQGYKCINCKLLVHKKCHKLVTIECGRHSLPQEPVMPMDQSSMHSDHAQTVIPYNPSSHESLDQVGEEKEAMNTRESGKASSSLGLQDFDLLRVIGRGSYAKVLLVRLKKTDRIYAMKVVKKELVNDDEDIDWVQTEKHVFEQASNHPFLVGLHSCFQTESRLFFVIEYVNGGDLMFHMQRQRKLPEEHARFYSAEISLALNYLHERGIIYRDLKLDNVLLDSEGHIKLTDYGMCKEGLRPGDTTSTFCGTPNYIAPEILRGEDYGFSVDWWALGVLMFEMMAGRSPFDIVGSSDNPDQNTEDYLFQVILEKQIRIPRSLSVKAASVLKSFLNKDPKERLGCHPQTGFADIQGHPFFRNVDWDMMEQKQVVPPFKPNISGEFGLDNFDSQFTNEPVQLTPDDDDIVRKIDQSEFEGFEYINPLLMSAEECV
Briefly: biochemical. The conditions noted are these: read-out: % enzyme activity, 1 μM; Run 1, Run 2.

The next assay addresses SIK1 (Homo sapiens, UniProt P57059). As to the kind of experiment: biochemical. The conditions noted are these: read-out: % enzyme activity, 1 μM; Run 1, Run 2.
For a further assay, the target named is TYK1/LTK (Homo sapiens, UniProt P29376). Briefly: biochemical. The conditions noted are these: read-out: % enzyme activity, 1 μM; Run 1, Run 2.
Chain of TYK1/LTK (P29376 17-864): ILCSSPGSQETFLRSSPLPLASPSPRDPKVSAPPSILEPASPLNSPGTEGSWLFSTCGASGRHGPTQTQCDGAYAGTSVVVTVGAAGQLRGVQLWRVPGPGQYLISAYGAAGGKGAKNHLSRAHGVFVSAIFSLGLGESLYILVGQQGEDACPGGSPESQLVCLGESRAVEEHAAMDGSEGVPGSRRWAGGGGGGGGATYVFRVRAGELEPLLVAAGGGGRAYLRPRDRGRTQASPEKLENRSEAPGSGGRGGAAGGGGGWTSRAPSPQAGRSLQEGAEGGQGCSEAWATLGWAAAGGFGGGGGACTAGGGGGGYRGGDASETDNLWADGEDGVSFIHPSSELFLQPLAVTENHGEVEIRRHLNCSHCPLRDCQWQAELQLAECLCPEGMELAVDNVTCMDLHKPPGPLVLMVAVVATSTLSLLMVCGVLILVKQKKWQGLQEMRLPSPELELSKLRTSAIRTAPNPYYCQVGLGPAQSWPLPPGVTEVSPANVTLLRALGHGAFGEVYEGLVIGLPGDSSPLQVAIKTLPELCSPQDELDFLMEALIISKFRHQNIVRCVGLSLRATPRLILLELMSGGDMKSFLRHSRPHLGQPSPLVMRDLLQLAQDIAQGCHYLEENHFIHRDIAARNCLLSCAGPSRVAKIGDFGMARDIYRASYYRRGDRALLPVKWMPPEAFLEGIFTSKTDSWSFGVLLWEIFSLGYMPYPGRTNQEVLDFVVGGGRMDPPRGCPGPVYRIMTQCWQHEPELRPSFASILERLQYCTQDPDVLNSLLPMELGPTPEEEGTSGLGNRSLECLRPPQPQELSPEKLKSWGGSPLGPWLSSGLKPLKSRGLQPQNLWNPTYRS

Chain of GSK3b (P49841 whole entry): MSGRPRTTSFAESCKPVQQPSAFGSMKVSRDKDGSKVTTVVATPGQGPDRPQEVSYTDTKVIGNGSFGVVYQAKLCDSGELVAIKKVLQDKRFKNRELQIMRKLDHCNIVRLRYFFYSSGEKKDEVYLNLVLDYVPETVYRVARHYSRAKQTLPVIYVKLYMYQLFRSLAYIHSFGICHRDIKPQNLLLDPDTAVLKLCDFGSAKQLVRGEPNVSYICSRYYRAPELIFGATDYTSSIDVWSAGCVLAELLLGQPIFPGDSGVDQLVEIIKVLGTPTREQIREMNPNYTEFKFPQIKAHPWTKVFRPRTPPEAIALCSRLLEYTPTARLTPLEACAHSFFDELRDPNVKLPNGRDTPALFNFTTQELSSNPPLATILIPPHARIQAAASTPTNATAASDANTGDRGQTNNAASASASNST
Chain of CDK6/cyclin D1 (Q00534 whole entry): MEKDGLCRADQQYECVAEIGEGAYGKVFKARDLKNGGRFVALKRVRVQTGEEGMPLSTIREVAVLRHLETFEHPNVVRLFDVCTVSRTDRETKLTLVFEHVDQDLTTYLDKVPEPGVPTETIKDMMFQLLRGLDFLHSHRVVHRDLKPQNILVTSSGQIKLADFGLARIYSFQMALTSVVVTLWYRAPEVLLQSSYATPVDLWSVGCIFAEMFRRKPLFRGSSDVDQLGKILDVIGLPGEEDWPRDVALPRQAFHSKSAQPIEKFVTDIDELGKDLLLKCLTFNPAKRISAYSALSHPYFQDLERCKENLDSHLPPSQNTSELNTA
Chain of CDK6/cyclin D1 (P24385 whole entry partner): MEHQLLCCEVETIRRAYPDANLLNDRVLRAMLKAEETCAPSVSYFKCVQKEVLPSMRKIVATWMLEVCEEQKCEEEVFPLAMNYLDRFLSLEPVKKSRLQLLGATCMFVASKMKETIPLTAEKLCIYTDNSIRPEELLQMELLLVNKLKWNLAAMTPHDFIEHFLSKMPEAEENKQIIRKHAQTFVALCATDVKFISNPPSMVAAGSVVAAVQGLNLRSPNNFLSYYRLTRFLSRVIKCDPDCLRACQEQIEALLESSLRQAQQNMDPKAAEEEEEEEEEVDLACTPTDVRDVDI
Chain of MEK1 (Q02750 whole entry): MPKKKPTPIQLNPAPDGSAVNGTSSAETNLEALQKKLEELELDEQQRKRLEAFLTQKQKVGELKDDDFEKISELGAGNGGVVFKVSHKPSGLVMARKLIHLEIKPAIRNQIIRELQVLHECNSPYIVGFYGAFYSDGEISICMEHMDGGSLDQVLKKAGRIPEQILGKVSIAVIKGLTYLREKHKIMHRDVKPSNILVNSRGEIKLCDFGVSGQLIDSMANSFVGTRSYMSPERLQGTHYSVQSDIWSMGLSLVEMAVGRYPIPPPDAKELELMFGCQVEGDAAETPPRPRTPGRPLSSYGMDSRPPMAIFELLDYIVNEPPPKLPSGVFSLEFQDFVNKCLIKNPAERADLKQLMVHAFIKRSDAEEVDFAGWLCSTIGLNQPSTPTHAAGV
Chain of SIK1 (P57059 whole entry): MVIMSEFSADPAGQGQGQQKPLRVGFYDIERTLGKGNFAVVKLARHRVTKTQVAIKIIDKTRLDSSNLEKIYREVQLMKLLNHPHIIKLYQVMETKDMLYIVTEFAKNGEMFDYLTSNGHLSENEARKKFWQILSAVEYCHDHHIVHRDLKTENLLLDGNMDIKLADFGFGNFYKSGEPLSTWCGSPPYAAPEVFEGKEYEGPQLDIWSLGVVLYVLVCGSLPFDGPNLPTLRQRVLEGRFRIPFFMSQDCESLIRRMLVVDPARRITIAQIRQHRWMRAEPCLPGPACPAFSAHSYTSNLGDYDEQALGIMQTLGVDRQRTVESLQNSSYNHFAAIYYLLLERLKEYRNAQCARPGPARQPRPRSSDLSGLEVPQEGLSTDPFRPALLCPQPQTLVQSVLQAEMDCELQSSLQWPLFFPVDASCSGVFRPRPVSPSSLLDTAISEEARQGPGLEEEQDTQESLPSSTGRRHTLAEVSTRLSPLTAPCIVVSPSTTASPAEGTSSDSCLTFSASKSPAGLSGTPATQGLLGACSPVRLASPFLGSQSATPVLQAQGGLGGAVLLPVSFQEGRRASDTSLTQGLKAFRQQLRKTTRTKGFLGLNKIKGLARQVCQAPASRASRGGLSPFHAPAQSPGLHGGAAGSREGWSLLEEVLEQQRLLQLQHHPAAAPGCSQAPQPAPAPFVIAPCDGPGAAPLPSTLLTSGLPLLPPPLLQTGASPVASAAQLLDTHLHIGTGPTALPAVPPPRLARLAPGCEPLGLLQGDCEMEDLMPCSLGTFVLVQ

As to `COc1cc(-c2cncc(-c3ccc(N4CCN(C)CC4)cc3)c2C)cc(F)c1C(N)=O` [Compound 26a, 2-Fluoro-6-methoxy-4-(4-methyl-5-(4-(4-methylpiperazin-1-yl)phenyl)pyridin-3-yl)benzamide], the entries for the “% enzyme activity” value at CDK6/cyclin D1 and on TAK1 were 97.80% and 97.44%, respectively. Moreover, the remaining activity at 1 µM at CAMK1b stood at 97.9%; at DYRK1/DYRK1A, 43.3%; at GSK3b it was 88.5%; at HCK it was 93.6%; at MEK1, 97.5%; at MST3/STK24, 90.2%. Further, the remaining activity at 1 µM on MYLK4 amounted to 97.7%; on NEK2 it was 92.3%; at NEK6, 99.3%; at P38d/MAPK13, 101%; on p70S6K/RPS6KB1, 97.8%; at PKCiota it was 107%. Moreover, the remaining activity at 1 µM at SIK1 came out at 82.9%; at TYK1/LTK, 99%.

Take `COc1cc(-c2cncc(-c3ccc(N4C[C@@H](C)N(C)[C@@H](C)C4)cc3)c2C)cc(F)c1C(N)=O` [Compound 26c, 2-Fluoro-6-methoxy-4-(4-methyl-5-(4-((3R,5S)-3,4,5-trimethylpiperazin-1-yl)phenyl)pyridin-3-yl)benzamide]: the figures for the “% enzyme activity” value at CDK6/cyclin D1 and at TAK1 were 92.80% and 98.46%, respectively. The remaining activity at 1 µM stood at 99.4% at CAMK1b; 62.4% on DYRK1/DYRK1A; 88.8% on GSK3b; 91.8% on HCK; 95.1% at MEK1; 96.3% at MST3/STK24. Moreover, the remaining activity at 1 µM came to 104% on MYLK4; 98.5% at NEK2; 104% on NEK6; 97.7% at P38d/MAPK13; 100% at p70S6K/RPS6KB1; 99.1% on PKCiota. Further, the remaining activity at 1 µM at SIK1 is 93.8%; on TYK1/LTK it was 99.3%.
